Data taken from patent publication US12421252B2, “Spiro (isobenzofuranazetidine) compounds for the treatment of autoimmune disease” (Hoffmann-La Roche Inc., priority 2020, dated 2025).

Biological target: T1, human TLR8 (Homo sapiens, UniProt Q9NR97)
T1 sequence (Q9NR97 27-1041): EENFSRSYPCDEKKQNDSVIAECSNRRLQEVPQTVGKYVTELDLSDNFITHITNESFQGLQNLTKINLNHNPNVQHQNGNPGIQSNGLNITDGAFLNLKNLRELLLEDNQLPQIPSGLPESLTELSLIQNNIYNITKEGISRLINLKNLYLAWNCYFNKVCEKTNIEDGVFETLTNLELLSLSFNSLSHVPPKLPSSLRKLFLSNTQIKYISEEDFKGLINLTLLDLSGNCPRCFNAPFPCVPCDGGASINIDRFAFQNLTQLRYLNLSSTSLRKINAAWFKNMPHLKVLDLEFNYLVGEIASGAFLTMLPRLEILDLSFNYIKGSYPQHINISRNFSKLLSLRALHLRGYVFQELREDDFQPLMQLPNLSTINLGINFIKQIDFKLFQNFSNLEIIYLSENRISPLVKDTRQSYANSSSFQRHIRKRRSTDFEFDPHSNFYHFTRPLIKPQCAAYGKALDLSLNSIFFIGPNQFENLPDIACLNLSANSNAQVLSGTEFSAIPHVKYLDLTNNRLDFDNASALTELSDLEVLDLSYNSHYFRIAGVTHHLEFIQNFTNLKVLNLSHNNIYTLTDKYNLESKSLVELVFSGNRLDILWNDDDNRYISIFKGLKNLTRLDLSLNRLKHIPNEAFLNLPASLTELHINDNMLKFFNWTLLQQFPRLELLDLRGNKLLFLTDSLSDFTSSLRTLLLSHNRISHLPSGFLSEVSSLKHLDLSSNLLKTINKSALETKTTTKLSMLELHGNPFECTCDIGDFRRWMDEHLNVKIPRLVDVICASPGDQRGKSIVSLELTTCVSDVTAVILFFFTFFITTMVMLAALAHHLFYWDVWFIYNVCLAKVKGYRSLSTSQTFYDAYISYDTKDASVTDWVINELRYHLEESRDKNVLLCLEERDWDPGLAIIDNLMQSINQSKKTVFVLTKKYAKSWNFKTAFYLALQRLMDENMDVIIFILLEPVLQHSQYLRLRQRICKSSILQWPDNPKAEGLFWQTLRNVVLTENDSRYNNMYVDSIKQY
Assay: HEK293-Blue-hTLR-8 cells assay
Type: cell-based
Details: HEK293-Blue-hTLR8 cells, R848 stimulation, 20 hrs, SEAP reporter; read-out: HEK/hTLR8 IC50
From the text: HEK293-Blue-hTLR-8 cells assay:
A stable HEK293-Blue-hTLR-8 cell line was purchased from InvivoGen (Cat. #: hkb-htlr8, San Diego, California, USA). These cells were originally designed for studying the stimulation of human TLR8 by monitoring the activation of NF-κB. A SEAP (secreted embryonic alkaline phosphatase) reporter gene was placed under the control of the IFN-β minimal promoter fused to five NF-κB and AP-1-binding sites. The SEAP was induced by activating NF-κB and AP-1 via stimulating HEK-Blue hTLR8 cells with TLR8 ligands. Therefore the reporter expression was declined by TLR8 antagonist under the stimulation of a ligand, such as R848, for incubation of 20 hrs. The cell culture supernatant SEAP reporter activity was determined using QUANTI-Blue™kit (Cat. #: rep-qb1, Invivogen, San Diego, Ca, USA) at a wavelength of 640 nm, a detection medium that turns purple or blue in the presence of alkaline phosphatase.
HEK293-Blue-hTLR8 cells were incubated at a density of 250,000˜450,000 cells/mL in a volume of 170 μL in a 96-well plate in Dulbecco's Modified Eagle's medium (DMEM) containing 4.5 g/L glucose, 50 U/mL penicillin, […], […], 2 mM L-glutamine, 10% (v/v) heat-inactivated fetal bovine serum with addition of 20 μL test compound in a serial dilution in the presence of final DMSO at 1% and 10 μL of 60 uM R848 in above DMEM, perform incubation under 37° C. in a CO2 incubator for 20 hrs. Then 20 μL of the supernatant from each well was incubated with 180 μL Quanti-blue substrate solution at 37° C. for 2 hrs and the absorbance was read at 620-655 nm using a spectrophotometer. The signaling pathway that TLR8 activation leads to downstream NF-κB activation has been widely accepted, and therefore similar reporter assay was modified for evaluating TLR8 antagonist.

Row | SMILES | IC50
1 | C[C@@H]1CN(c2ccc(C#N)n3ncc(F)c23)C[C@H](CN2CC3(C2)OCc2cc(N4CC(C)(N)C4)cnc23)O1 [Example 33, 4-[(2S,6R)-2-[[3-(3-amino-3-methyl-azetidin-1-yl)spiro[5H-furo[3,4-b]pyridine-7,3′-azetidine]-1′-yl]methyl]-6-methyl-morpholin-4-yl]-3-fluoro-pyrazolo[1,5-a]pyridine-7-carbonitrile] | 24 nM
2 | C[C@@H]1CN(c2ccc(C#N)n3ncc(F)c23)C[C@H](CN2CC3(C2)OCc2cc(N4CC(N)C4)ccc23)O1 [Example 9, 4-[(2S,6R)-2-[[6-(3-aminoazetidin-1-yl)spiro[1H-isobenzofuran-3,3′-azetidine]-1′-yl]methyl]-6-methyl-morpholin-4-yl]-3-fluoro-pyrazolo[1,5-a]pyridine-7-carbonitrile] | 45 nM
3 | C[C@@H]1CN(c2ccc(C#N)n3ncc(F)c23)C[C@H](CN2CC3(C2)OCc2cc(N4CC(C)(N)C4)ccc23)O1 [Example 1, 4-[(2S,6R)-2-[[6-(3-amino-3-methyl-azetidin-1-yl)spiro[1H-isobenzofuran-3,3′-azetidine]-1′-yl]methyl]-6-methyl-morpholin-4-yl]-3-fluoro-pyrazolo[1,5-a]pyridine-7-carbonitrile] | 82 nM
4 | C[C@@H]1CN(c2ccc(C#N)n3ncc(F)c23)C[C@H](CN2CC3(C2)OCc2cc(N4CC(C)(N)C4)ncc23)O1 [Example 24, 4-[(2S,6R)-2-[[6-(3-amino-3-methyl-azetidin-1-yl)spiro[1H-furo[3,4-c]pyridine-3,3′-azetidine]-1′-yl]methyl]-6-methyl-morpholin-4-yl]-3-fluoro-pyrazolo[1,5-a]pyridine-7-carbonitrile] | 59 nM
5 | C[C@@H]1CN(c2ccc(C#N)n3nccc23)C[C@H](CN2CC3(C2)OCc2cc(N4CC(C)(N)C4)cnc23)O1 [Example 26, 4-[(2S,6R)-2-[[3-(3-amino-3-methyl-azetidin-1-yl)spiro[5H-furo[3,4-b]pyridine-7,3′-azetidine]-1′-yl]methyl]-6-methyl-morpholin-4-yl]pyrazolo[1,5-a]pyridine-7-carbonitrile] | 234 nM
6 | C[C@@H]1CN(c2ccc(C#N)n3nccc23)C[C@H](CN2CC3(C2)OCc2cc(N4CC(N)C4)ccc23)O1 [Example 19, 4-[(2S,6R)-2-[[6-(3-aminoazetidin-1-yl)spiro[1H-isobenzofuran-3,3′-azetidine]-1′-yl]methyl]-6-methyl-morpholin-4-yl]pyrazolo[1,5-a]pyridine-7-carbonitrile] | 99 nM
7 | C[C@@H]1CN(c2ccc(C#N)n3ncc(F)c23)C[C@H](CN2CC3(C2)OCc2cc(N4CC5(CNC5)C4)ccc23)O1 [Example 12, 4-[(2S,6R)-2-[[6-(2,6-diazaspiro[3.3]heptan-2-yl)spiro[1H-isobenzofuran-3,3′-azetidine]-1′-yl]methyl]-6-methyl-morpholin-4-yl]-3-fluoro-pyrazolo[1,5-a]pyridine-7-carbonitrile] | 37 nM
8 | C[C@@H]1CN(c2ccc(C#N)n3ncc(F)c23)C[C@H](CN2CC3(C2)OCc2cc(N[C@H]4CNC[C@H]4F)ccc23)O1 [Example 3, 3-fluoro-4-[(2S,6R)-2-[[6-[[(3S,4R)-4-fluoropyrrolidin-3-yl]amino]spiro[1H-isobenzofuran-3,3′-azetidine]-1′-yl]methyl]-6-methyl-morpholin-4-yl]pyrazolo[1,5-a]pyridine-7-carbonitrile] | 51 nM
9 | C[C@@H]1CN(c2ccc(C#N)n3ncc(F)c23)C[C@H](CN2CC3(C2)OCc2cc(N4CC[C@](C)(N)C4)ccc23)O1 [Example 5, 4-[(2S,6R)-2-[[6-[(3S)-3-amino-3-methyl-pyrrolidin-1-yl]spiro[1H-isobenzofuran-3,3′-azetidine]-1′-yl]methyl]-6-methyl-morpholin-4-yl]-3-fluoro-pyrazolo[1,5-a]pyridine-7-carbonitrile] | 22 nM
10 | C[C@@H]1CN(c2ccc(C#N)n3ncc(F)c23)C[C@H](CN2CC3(C2)OCc2cc(N4CC5(CNCCO5)C4)ccc23)O1 [Example 4, 3-fluoro-4-[(2R,6S)-2-methyl-6-[[6-(5-oxa-2,8-diazaspiro[3.5]nonan-2-yl)spiro[1H-isobenzofuran-3,3′-azetidine]-1′-yl]methyl]morpholin-4-yl]pyrazolo[1,5-a]pyridine-7-carbonitrile] | 35 nM

Second part, the compound after the results:

Row | IC50 | SMILES
11 | 9 nM | [2H]c1ccc2c(N3C[C@H](CN4CC5(C4)OCc4cc(N6C[C@H]7NCCO[C@@H]7C6)ccc45)O[C@H](C)C3)ccc(C#N)c2n1 [Example 17, 5-[(2S,6R)-2-[[6-[(4aR,7aR)-3,4,4a,5,7,7a-hexahydro-2H-pyrrolo[3,4-b][1,4]oxazin-6-yl]spiro[1H-isobenzofuran-3,3′-azetidine]-1′-yl]methyl]-6-methyl-morpholin-4-yl]-2-deuterio-quinoline-8-carbonitrile]
12 | 17 nM | [2H]c1ccc2c(N3C[C@H](CN4CC5(C4)OCc4cc(N6CC(C)(N)C6)cnc45)O[C@H](C)C3)ccc(C#N)c2n1 [Example 21, 5-[(2S,6R)-2-[[3-(3-amino-3-methyl-azetidin-1-yl)spiro[5H-furo[3,4-b]pyridine-7,3′-azetidine]-1′-yl]methyl]-6-methyl-morpholin-4-yl]-2-deuterio-quinoline-8-carbonitrile]
13 | 10 nM | [2H]c1ccc2c(N3C[C@H](CN4CC5(C4)OCc4cc(N6CCNCC6)ccc45)O[C@H](C)C3)ccc(C#N)c2n1 [Example 18, 2-deuterio-5-[(2R,6S)-2-methyl-6-[(6-piperazin-1-ylspiro[1H-isobenzofuran-3,3′-azetidine]-1′-yl)methyl]morpholin-4-yl]quinoline-8-carbonitrile]
14 | 25 nM | [2H]c1ccc2c(N3C[C@H](CN4CC5(C4)OCc4cc(N6C[C@H]7NCCO[C@@H]7C6)ncc45)O[C@H](C)C3)ccc(C#N)c2n1 [Example 28, 5-[(2S,6R)-2-[[6-[(4aR,7aR)-3,4,4a,5,7,7a-hexahydro-2H-pyrrolo[3,4-b][1,4]oxazin-6-yl]spiro[1H-furo[3,4-c]pyridine-3,3′-azetidine]-1′-yl]methyl]-6-methyl-morpholin-4-yl]-2-deuterio-quinoline-8-carbonitrile]
15 | 24 nM | C[C@@H]1CN(c2ccc(C#N)n3ncc(F)c23)C[C@H](CN2CC3(C2)OCc2cc(N4CCNCC4)ccc23)O1 [Example 6, 3-fluoro-4-[(2R,6S)-2-methyl-6-[(6-piperazin-1-ylspiro[1H-isobenzofuran-3,3′-azetidine]-1′-yl)methyl]morpholin-4-yl]pyrazolo[1,5-a]pyridine-7-carbonitrile]
16 | 30 nM | [2H]c1ccc2c(N3C[C@H](CN4CC5(C4)OCc4cc(N6C[C@@H](N)[C@H](OC)C6)cnc45)O[C@H](C)C3)ccc(C#N)c2n1 [Example 31, 5-[(2S,6R)-2-[[3-[(3R,4R)-3-amino-4-methoxy-pyrrolidin-1-yl]spiro[5H-furo[3,4-b]pyridine-7,3′-azetidine]-1′-yl]methyl]-6-methyl-morpholin-4-yl]-2-deuterio-quinoline-8-carbonitrile]
17 | 22 nM | [2H]c1ccc2c(N3C[C@H](CN4CC5(C4)OCc4cc(N6CC(N)C6)ncc45)O[C@H](C)C3)ccc(C#N)c2n1 [Example 32, 5-[(2S,6R)-2-[[6-(3-aminoazetidin-1-yl)spiro[1H-furo[3,4-c]pyridine-3,3′-azetidine]-1′-yl]methyl]-6-methyl-morpholin-4-yl]-2-deuterio-quinoline-8-carbonitrile]
